Measurements: ChEMBL document CHEMBL4334548, “Discovery of Isoxazole Amides as Potent and Selective SMYD3 Inhibitors” (ACS Med Chem Lett, 2020)
Values after ≈ are worked out from the molar mass of the structure shown.

How the values were obtained:
[1] = Solubility of compound by CLND method; type: physicochemical
[2] = Permeability of compound; type: ADME; details: not told; read-out: permeability
[3] = Half life in Sprague-Dawley rat at 1 mg/kg, iv or 2 mg/kg, po; type: ADME, organism-based; details: in vivo
[4] = Oral bioavailability in Sprague-Dawley rat at 2 mg/kg; type: ADME, organism-based; details: in vivo; for bioavailability: Sprague-Dawley
[5] = Clearance in Sprague-Dawley rat at 1 mg/kg, iv or 2 mg/kg, po; type: ADME, organism-based; details: in vivo
[6] = Volume of distribution in Sprague-Dawley rat at 1 mg/kg, iv or 2 mg/kg, po; type: ADME, organism-based; details: in vivo
[7] = AUC in Sprague-Dawley rat at 2 mg/kg, po; type: ADME, organism-based; details: in vivo
[8] = Clearance in Sprague-Dawley rat at 0.5 mg/kg, iv or 2 mg/kg, po; type: ADME, organism-based; details: in vivo
[9] = Volume of distribution in Sprague-Dawley rat at 0.5 mg/kg, iv or 2 mg/kg, po; type: ADME, organism-based; details: in vivo
[10] = Half life in Sprague-Dawley rat at 0.5 mg/kg, iv or 2 mg/kg, po; type: ADME, organism-based; details: in vivo
[11] = Half life in Sprague-Dawley rat at 1 mg/kg, iv or 5 mg/kg, po; type: ADME, organism-based; details: in vivo
[12] = AUC in Sprague-Dawley rat at 5 mg/kg, po; type: ADME, organism-based; details: in vivo
[13] = Volume of distribution in Sprague-Dawley rat at 1 mg/kg, iv or 5 mg/kg, po; type: ADME, organism-based; details: in vivo
[14] = Oral bioavailability in Sprague-Dawley rat at 5 mg/kg; type: ADME, organism-based; details: in vivo

Compound | solubility kinetic [1] [µM] | Papp [2] [×10⁻⁶ cm/s] | further results
CN(C)Cc1ccc(S(=O)(=O)N2CCC(NC(=O)c3cc(C4CC4)on3)CC2)cc1 | 130 (≈ 56.2 µg/mL) | 20 | 
N[C@H]1CC[C@@H](S(=O)(=O)N2CCC(NC(=O)c3cc(C4CC4)on3)CC2)CC1 | 420 (≈ 167 µg/mL) | < 1 | 
CC(C)(C)CN[C@H]1CC[C@H](CS(=O)(=O)N2CCC(NC(=O)c3cc(C4CC4)on3)CC2)CC1 | 367 (≈ 176 µg/mL) | 14 | 
O=C(NC1CCN(S(=O)(=O)c2ccc(CN3CCCCC3)cc2)CC1)c1cc(C2CC2)on1 | 26 (≈ 12.3 µg/mL) | 7.9 | 
O=C(NC1CCN(S(=O)(=O)C[C@H]2CC[C@H](NCc3cccnc3)CC2)CC1)c1cc(C2CC2)on1 | 194 (≈ 97.3 µg/mL) | 5.5 | 
CN(CCCC(F)(F)F)[C@H]1CC[C@H](CS(=O)(=O)N2CCC(NC(=O)c3cc(C4CC4)on3)CC2)CC1 | 14 (≈ 7.49 µg/mL) |  | 
O=C(NC1CCN(S(=O)(=O)C[C@H]2CC[C@H](NCc3ccccn3)CC2)CC1)c1cc(C2CC2)on1 | 52 (≈ 26.1 µg/mL) | 6.4 | 
CCS(=O)(=O)N1CCC(NC(=O)c2cc(C3CC3)on2)CC1 | 306 (≈ 100 µg/mL) | 24 | 
O=C(NC1CCN(S(=O)(=O)C[C@H]2CC[C@H](NCc3ccc(F)cn3)CC2)CC1)c1cc(C2CC2)on1 | 141 (≈ 73.3 µg/mL) | 19 | half-life [3]: 10.8 h; bioavailability [4]: 59%; clearance [5]: 17 mL/min/kg; Vd [6]: 12 L/kg; AUC ([7]; Sprague-Dawley, read-out: AUC): 578 ng·h/mL
CN(C)[C@H]1CC[C@H](CS(=O)(=O)N2CCC(NC(=O)c3cc(C4CC4)on3)CC2)CC1 | 126 (≈ 55.3 µg/mL) | < 1 | 
O=C(NC1CCN(S(=O)(=O)C[C@H]2CC[C@H](NCCCC(F)(F)F)CC2)CC1)c1cc(C2CC2)on1 | 9 (≈ 4.69 µg/mL) | 14 | clearance [8]: 20 mL/min/kg; Vd [9]: 18.9 L/kg; half-life [10]: 12.8 h; bioavailability [4]: 79%; AUC ([7]; Sprague-Dawley, read-out: AUC): 676 ng·h/mL
CS(=O)(=O)N1CCC(NC(=O)c2cc(C3CC3)on2)CC1 | 55 (≈ 17.2 µg/mL) | 12 | half-life [11]: 2.5 h; AUC [12]: 2142 ng·h/mL; Vd [13]: 1.2 L/kg; F [14]: 79%
O=C(NC1CCN(S(=O)(=O)C[C@H]2CC[C@H](NCc3cccc(Cl)c3)CC2)CC1)c1cc(C2CC2)on1 | 4 (≈ 2.14 µg/mL) | 18 | 
O=C(NC1CCN(S(=O)(=O)C[C@H]2CC[C@H](NCc3ccccc3)CC2)CC1)c1cc(C2CC2)on1 | 1 (≈ 0.501 µg/mL) |  | clearance [8]: 90 mL/min/kg; Vd [9]: 16.1 L/kg; half-life [10]: 3.6 h; bioavailability [4]: 79%; AUC ([7]; Sprague-Dawley, read-out: AUC): 149 ng·h/mL
NCCS(=O)(=O)N1CCC(NC(=O)c2cc(C3CC3)on2)CC1 | 375 (≈ 128 µg/mL) | < 1 | 
O=C(NC1CCN(S(=O)(=O)C[C@H]2CC[C@H](NCc3cc(F)ccn3)CC2)CC1)c1cc(C2CC2)on1 |  | 6.6 | 
O=C(NC1CCN(S(=O)(=O)C[C@H]2CC[C@H](NCc3cccc(F)c3)CC2)CC1)c1cc(C2CC2)on1 | 277 (≈ 144 µg/mL) | 20 | 
CCCN[C@H]1CC[C@H](CS(=O)(=O)N2CCC(NC(=O)c3cc(C4CC4)on3)CC2)CC1 | 143 (≈ 64.7 µg/mL) | 3.5 | 
O=C(NC1CCN(S(=O)(=O)[C@H]2CC[C@H](NCCCC(F)(F)F)CC2)CC1)c1cc(C2CC2)on1 |  |  | half-life [3]: 8.6 h; bioavailability [4]: 86%; clearance [5]: 20 mL/min/kg; Vd [6]: 12.5 L/kg; AUC ([7]; Sprague-Dawley, read-out: AUC): 967 ng·h/mL
O=C(NC1CCN(S(=O)(=O)c2ccc(CN3CCC3)cc2)CC1)c1cc(C2CC2)on1 | 302 (≈ 134 µg/mL) | 16 | 
O=C(NC1CCN(S(=O)(=O)C[C@H]2CC[C@H](NCc3ccccc3F)CC2)CC1)c1cc(C2CC2)on1 | 297 (≈ 154 µg/mL) | 32 | half-life [3]: 1.7 h; F [4]: 65%; Vd [6]: 9.4 L/kg; AUC [7]: 87 ng·h/mL
N[C@H]1CC[C@H](CS(=O)(=O)N2CCC(NC(=O)c3cc(C4CC4)on3)CC2)CC1 | 297 (≈ 122 µg/mL) | < 1 | 
O=C(NC1CCN(S(=O)(=O)C[C@H]2CC[C@H](NCc3ccncc3)CC2)CC1)c1cc(C2CC2)on1 | 26 (≈ 13 µg/mL) | 4.5 | 
Cc1ccc(CN[C@H]2CC[C@H](CS(=O)(=O)N3CCC(NC(=O)c4cc(C5CC5)on4)CC3)CC2)cc1 | 10 (≈ 5.15 µg/mL) | 14 | 
